Data from article PMC7486443, “Generation of Phenothiazine with Potent Anti-TLK1 Activity for Prostate Cancer Therapy” (iScience, 2020).

Legend:
Experiment in all cases: biochemical
Set-up in all cases: DiscoverX KINOMEscan scanMAX competition binding panel, single concentration, percent of control; remaining binding: dose or concentration left out as unconfirmed
Conditions in all cases: KINOMEscan binding, percent of control; read-out: Table S4_SCANMAX REPORT - related to Fig. 1 / Percent Control
[1] = biological target: T1, ABL1(M351T)-phosphorylated (Homo sapiens, UniProt P00519, M351T)
T1 construct: phosphorylated

[2] = biological target: T2, ABL1(Y253F)-phosphorylated (Homo sapiens, UniProt P00519, Y253F)
T2 construct: phosphorylated

BUB1 = BUB1 (Homo sapiens, UniProt O43683)
BUB1, sequence (O43683 whole entry): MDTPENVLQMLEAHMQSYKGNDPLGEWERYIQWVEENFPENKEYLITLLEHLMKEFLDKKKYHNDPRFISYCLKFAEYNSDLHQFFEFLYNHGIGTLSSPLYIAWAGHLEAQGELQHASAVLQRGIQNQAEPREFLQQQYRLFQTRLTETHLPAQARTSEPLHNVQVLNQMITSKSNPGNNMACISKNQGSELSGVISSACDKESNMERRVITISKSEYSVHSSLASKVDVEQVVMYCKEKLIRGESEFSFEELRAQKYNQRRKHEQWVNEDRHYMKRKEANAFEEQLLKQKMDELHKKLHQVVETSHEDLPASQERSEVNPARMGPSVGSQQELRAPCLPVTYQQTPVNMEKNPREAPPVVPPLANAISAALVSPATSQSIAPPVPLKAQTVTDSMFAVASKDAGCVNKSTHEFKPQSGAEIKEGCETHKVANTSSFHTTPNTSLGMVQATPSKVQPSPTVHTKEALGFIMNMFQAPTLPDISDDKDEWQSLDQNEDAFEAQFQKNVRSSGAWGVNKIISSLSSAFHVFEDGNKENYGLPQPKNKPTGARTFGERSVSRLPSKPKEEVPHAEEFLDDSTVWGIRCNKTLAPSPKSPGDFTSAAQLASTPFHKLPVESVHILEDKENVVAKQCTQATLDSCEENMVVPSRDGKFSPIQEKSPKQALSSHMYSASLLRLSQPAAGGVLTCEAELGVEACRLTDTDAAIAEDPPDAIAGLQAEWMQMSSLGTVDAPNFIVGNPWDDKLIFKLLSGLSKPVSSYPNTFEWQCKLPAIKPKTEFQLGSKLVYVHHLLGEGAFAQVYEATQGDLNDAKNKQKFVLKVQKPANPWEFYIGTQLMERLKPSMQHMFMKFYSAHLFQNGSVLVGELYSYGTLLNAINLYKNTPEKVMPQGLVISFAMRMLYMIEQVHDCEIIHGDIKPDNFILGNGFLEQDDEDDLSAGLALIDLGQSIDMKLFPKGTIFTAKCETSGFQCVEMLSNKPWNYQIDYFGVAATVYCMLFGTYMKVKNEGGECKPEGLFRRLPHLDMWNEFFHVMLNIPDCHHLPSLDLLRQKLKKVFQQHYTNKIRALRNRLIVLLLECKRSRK

CDK8 = CDK8 (Homo sapiens, UniProt P49336)
CHEK1 = CHEK1 (Homo sapiens, UniProt O14757)
CHEK1, sequence (O14757 whole entry): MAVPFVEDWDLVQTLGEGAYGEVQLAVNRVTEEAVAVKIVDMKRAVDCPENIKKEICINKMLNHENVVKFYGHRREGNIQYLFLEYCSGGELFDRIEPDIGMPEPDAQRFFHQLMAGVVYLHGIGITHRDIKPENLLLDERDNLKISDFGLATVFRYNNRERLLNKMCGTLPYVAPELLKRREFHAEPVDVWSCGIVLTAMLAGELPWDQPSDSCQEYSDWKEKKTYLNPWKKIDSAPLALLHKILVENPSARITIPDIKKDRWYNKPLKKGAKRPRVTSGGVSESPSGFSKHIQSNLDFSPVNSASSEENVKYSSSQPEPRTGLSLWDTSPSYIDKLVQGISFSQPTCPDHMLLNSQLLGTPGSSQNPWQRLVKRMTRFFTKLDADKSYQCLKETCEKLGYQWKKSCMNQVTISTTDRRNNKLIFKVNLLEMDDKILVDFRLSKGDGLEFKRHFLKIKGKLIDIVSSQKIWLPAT

CHEK2 = CHEK2 (Homo sapiens, UniProt O96017)
CSF1R = CSF1R (Homo sapiens, UniProt P07333)
CSK = CSK (Homo sapiens, UniProt P41240)
KIT(V559D) = KIT(V559D) (Homo sapiens, UniProt P10721, V559D)
LATS1 = LATS1 (Homo sapiens, UniProt O95835)
PIK3CA(E545K) = PIK3CA(E545K) (Homo sapiens, UniProt P42336, E545K)
PLK3 = PLK3 (Homo sapiens, UniProt Q9H4B4)
PLK3, sequence (Q9H4B4 whole entry): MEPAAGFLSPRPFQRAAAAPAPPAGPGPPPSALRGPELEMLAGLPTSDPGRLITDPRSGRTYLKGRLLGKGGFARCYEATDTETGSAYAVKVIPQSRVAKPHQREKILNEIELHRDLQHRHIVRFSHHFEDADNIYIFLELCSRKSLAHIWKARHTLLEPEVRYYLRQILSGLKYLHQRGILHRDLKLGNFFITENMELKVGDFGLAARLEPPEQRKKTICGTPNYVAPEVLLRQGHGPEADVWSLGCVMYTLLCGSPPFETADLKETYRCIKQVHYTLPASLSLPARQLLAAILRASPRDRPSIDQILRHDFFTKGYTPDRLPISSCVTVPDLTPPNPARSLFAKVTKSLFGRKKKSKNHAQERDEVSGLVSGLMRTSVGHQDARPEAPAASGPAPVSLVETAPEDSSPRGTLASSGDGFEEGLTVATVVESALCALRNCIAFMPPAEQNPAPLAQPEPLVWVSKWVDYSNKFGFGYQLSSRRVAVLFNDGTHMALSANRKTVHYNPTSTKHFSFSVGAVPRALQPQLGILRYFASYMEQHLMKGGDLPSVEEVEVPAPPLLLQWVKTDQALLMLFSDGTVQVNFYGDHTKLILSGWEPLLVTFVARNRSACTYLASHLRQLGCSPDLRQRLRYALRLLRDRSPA

SNARK = biological target: T3, SNARK (Homo sapiens, UniProt Q9H093)
T3 construct: gene NUAK2
T3 sequence (Q9H093 whole entry): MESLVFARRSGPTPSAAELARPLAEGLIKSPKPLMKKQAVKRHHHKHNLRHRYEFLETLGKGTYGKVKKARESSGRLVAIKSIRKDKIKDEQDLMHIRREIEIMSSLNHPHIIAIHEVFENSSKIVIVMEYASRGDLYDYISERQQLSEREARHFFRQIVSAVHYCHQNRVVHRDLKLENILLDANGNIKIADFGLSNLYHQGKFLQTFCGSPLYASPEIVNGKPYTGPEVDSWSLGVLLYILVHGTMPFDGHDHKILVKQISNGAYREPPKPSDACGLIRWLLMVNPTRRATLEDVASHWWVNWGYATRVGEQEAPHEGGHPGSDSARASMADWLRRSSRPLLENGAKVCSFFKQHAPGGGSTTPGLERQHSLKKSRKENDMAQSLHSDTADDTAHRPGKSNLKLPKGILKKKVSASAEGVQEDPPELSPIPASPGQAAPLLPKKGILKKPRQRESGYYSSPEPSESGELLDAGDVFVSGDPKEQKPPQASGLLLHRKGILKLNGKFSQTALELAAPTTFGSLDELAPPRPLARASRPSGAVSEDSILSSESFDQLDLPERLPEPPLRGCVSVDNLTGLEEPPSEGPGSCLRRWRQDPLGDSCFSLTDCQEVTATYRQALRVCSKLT

SRPK2 = SRPK2 (Homo sapiens, UniProt P78362)
SRPK2, sequence (P78362 whole entry): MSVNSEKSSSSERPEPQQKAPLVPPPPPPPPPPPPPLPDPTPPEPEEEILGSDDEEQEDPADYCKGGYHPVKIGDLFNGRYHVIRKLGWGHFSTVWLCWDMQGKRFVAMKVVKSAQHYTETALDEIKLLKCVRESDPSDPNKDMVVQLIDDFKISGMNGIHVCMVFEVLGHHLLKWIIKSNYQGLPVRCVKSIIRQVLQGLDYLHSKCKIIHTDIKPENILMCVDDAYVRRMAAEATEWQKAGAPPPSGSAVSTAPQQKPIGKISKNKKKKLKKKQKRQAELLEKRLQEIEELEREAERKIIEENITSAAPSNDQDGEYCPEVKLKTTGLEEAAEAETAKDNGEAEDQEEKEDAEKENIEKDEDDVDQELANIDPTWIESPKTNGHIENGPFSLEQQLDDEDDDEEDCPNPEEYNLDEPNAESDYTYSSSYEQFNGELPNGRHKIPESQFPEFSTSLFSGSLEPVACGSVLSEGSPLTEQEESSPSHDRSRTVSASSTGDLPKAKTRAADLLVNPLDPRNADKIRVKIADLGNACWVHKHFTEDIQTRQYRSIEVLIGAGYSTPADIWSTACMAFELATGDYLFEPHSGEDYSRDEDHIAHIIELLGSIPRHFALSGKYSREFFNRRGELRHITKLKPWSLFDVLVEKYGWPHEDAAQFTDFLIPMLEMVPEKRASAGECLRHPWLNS

SYK = SYK (Homo sapiens, UniProt P43405)
TGFBR1 = TGFBR1 (Homo sapiens, UniProt P36897)
TGFBR1, sequence (P36897 whole entry): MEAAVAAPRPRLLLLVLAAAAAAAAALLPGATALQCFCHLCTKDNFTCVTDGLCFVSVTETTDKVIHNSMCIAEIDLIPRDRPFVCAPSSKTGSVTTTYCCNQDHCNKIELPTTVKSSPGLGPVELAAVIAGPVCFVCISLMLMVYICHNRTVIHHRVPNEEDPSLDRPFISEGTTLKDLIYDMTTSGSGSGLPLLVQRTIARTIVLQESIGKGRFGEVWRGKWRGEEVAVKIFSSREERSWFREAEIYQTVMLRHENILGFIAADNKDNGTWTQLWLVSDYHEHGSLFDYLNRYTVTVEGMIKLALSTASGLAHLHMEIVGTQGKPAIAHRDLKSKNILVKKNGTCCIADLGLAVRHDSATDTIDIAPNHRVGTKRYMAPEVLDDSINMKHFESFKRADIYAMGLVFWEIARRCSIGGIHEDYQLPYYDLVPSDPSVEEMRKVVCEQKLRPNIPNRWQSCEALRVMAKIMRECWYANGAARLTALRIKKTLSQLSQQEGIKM

TNNI3K = TNNI3K (Homo sapiens, UniProt Q59H18)
TYRO3 = TYRO3 (Homo sapiens, UniProt Q06418)
TYRO3, sequence (Q06418 whole entry): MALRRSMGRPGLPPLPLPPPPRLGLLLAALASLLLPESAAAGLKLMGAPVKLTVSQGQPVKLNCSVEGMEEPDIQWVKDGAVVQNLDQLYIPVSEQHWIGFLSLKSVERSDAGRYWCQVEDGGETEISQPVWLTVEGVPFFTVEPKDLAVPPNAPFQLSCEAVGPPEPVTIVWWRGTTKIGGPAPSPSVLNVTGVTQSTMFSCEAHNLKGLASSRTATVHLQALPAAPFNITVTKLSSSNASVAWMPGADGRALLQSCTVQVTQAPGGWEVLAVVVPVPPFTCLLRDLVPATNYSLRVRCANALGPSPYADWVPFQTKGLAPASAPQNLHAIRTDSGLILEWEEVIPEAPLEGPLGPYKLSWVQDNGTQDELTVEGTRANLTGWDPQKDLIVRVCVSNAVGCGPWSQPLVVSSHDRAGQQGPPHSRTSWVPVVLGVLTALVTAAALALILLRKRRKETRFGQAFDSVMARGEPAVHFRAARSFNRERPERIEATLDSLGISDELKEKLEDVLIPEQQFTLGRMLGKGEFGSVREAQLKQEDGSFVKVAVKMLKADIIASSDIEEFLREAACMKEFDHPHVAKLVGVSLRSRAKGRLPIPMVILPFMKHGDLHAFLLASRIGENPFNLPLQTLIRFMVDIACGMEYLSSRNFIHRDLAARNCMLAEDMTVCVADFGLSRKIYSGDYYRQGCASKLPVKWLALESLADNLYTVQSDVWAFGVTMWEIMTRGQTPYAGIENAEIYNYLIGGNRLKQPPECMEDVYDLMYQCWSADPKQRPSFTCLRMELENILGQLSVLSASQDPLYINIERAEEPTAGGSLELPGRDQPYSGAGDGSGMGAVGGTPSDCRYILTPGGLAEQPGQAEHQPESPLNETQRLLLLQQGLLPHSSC

WNK4 = WNK4 (Homo sapiens, UniProt Q96J92)

`c1ccc2c(c1)Sc1ccccc1N2CCN1CCOCC1` [J54] showed a remaining binding [1] of 100%, a remaining binding [2] of 79% and a remaining binding (BUB1) of 79%. For the same compound, the remaining binding (CDK8) was 100%, the remaining binding (CHEK1) was 100% and the remaining binding (CHEK2) was 100%. It also gave a remaining binding (CSF1R) of 100%, a remaining binding (CSK) of 100% and a remaining binding (KIT(V559D)) of 100%. It also gave a remaining binding (LATS1) of 81%, a remaining binding (PIK3CA(E545K)) of 100% and a remaining binding (PLK3) of 100%. For the same compound, the remaining binding (SNARK) was 99%, the remaining binding (SRPK2) was 100% and the remaining binding (SYK) was 100%. The remaining binding (TGFBR1) was 100%, the remaining binding (TNNI3K) was 100% and the remaining binding (TYRO3) was 100%. It also gave a remaining binding (WNK4) of 91%.
